According to patent publication US6806230B1, “Pyrimidine derivatives and herbicides containing them” (Kumiai Chemical Industry Co., Ltd., priority 1999, dated 2004):

Columns and labels:
Format in all cases: in vivo
barnyard grass (Ec) [1] = assay: Test Example 2: herbicidal effects by upland soil treatment; set-up: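 0-5 growth inhibition grade; 5 = over 90%; 4 = 70-90%; 3 = 50-70%; 2 = 30-50%; 1 = 10-30%; 0 = under 10%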; conditions: dose 100 g active ingredient per 10 ares, examined on the 21st day after treatment
Method in brief: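 Pre-emergence test: barnyard grass and green foxtail sown in upland soil, then soil surface sprayed with wettable-powder formulation at 100 g active ingredient per 10 ares (100 l per 10 ares). Grown in greenhouse; herbicidal effect scored on a rating scale 21 days after treatment.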

barnyard grass (Eo) [2] = assay: Test Example 1: herbicidal effects by flooded paddy field treatment; set-up: herbicidal effects, Eo (barnyard grass):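 0-5 growth inhibition grade; 5 = over 90%; 4 = 70-90%; 3 = 50-70%; 2 = 30-50%; 1 = 10-30%; 0 = under 10%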; conditions: dose 100 g active ingredient per 10 ares, examined on the 21st day after treatment, standards of Table 44
Method in brief: (§1)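 Dose: 100 g active ingredient per 10 ares as a diluted wettable powder dripped onto 3 cm floodwater, one day after sowing in puddled paddy soil. Scored by a standard rating scale 21 days later following greenhouse growth.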

monochoria (Mo) [3] = assay: Test Example 4: selectivity for a crop plant by flooded paddy field treatment; set-up: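 0-5 growth inhibition grade; 5 = over 90%; 4 = 70-90%; 3 = 50-70%; 2 = 30-50%; 1 = 10-30%; 0 = under 10%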; conditions: monochoria, dose 25 gai/10a, 21st day after treatment, index per Table 44
Method in brief: (§2)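 Water-surface application in a greenhouse pot test: 25 g active ingredient per 10 ares, given as a diluted wettable powder one day after flooding, with visual rating of herbicidal effect three weeks post-treatment.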

rice (Or) = assay: as above; set-up: scale not given here; conditions: rice transplanted at second leaf stage, dose 25 gai/10a, 21st day after treatment, index per Table 44
Method in brief: as §2

barnyard grass (Eo) [4] = assay: as above; set-up: scale not given here; conditions: barnyard grass, dose 25 gai/10a, 21st day after treatment, index per Table 44
Method in brief: as §2

monochoria (Mo) [5] = assay: Test Example 1: herbicidal effects by flooded paddy field treatment; set-up: herbicidal effects, Mo (monochoria):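 0-5 growth inhibition grade; 5 = over 90%; 4 = 70-90%; 3 = 50-70%; 2 = 30-50%; 1 = 10-30%; 0 = under 10%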; conditions: dose 100 g active ingredient per 10 ares, examined on the 21st day after treatment, standards of Table 44
Method in brief: as §1

barnyard grass (Ec) [6] = assay: Test Example 3: herbicidal effects by foliage treatment in upland field; set-up: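 0-5 growth inhibition grade; 5 = over 90%; 4 = 70-90%; 3 = 50-70%; 2 = 30-50%; 1 = 10-30%; 0 = under 10%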; conditions: dose 100 g active ingredient per 10 ares, examined on the 14th day after treatment
Method: In a 80 cm^2 plastic pot, upland soil was filled, and seeds of barnyard grass (Ec) and green foxtail (Se) were sown and cultured in a green house for 2 weeks. Then, a wettable powder prepared in accordance with Formulation Example 1 was diluted with water and applied to the entire foliage from above the plants by means of a small size spray at a rate of 100 l per 10 ares so that the dose of the active ingredient would be 100 g per 10 ares. Thereafter, cultivation was carried out in a green house, and on the 14th day after the treatment, the herbicidal effects were examined in accordance with the standards of Table 44.

Row | SMILES | Ec (herbicidal effects, index) (barnyard grass (Ec) [1]) | herbicidal effects, Eo (barnyard grass) (barnyard grass (Eo) [2]) | Mo (herbicidal effect index) (monochoria (Mo) [3]) | Or (herbicidal effect index on crop) (rice (Or)) | Eo (herbicidal effect index) (barnyard grass (Eo) [4]) | herbicidal effects, Mo (monochoria) (monochoria (Mo) [5]) | Ec (herbicidal effects, index) (barnyard grass (Ec) [6])
1 | COCc1ncncc1C(C(C)C)N(C)C(=O)C(C)c1ccc(Cl)cc1 (mixture of isomers) [1-591] | 5 | 5 | 5 | 1 | 5 | 5 | 4
2 | CCC(C)C(c1cncnc1C(F)(F)F)N(C)C(=O)Cc1ccc(Cl)s1 (mixture of isomers) [2-57] | 5 | 5 | 5 | 1 | 5 | 5 | 5
3 | CCC(C)C(c1cncnc1C(F)(F)F)N(C)C(=O)Cc1ccc(Cl)cc1F (mixture of isomers) [Compound 1-251] | 5 | 5 | 5 | 1 | 5 | 5 | 4
4 | CON(C(=O)Cc1ccc(F)cc1)C(c1cncnc1C(F)(F)F)C(C)C (racemic) [1-333] | 5 | 5 | 5 | 1 | 5 | 5 | 4
5 | CC(C)CC(c1cncnc1C(F)(F)F)N(C)C(=O)Cc1cccc(F)c1 (racemic) [1-334] | 5 | 5 | 5 | 0 | 5 | 5 | 4
6 | COc1ncncc1C(C(C)C)N(C)C(=O)Cc1ccccc1 (racemic) [1-401] | 5 | 5 | 5 | 1 | 5 | 5 | 5
7 | COc1ncncc1C(C(C)C)N(C)C(=O)Cc1ccc(C)cc1 (racemic) [1-404] | 5 | 5 | 5 | 1 | 5 | 5 | 5
8 | Cc1ccc(CC(=O)N(C)C(c2cncnc2C(F)(F)F)C2(C)CC2)cc1 (racemic) [1-412] | 5 | 5 | 5 | 1 | 5 | 5 | 4
9 | CC(C)C(c1cncnc1C(F)(F)F)N(C)C(=O)Cc1ccc(F)c(F)c1F (racemic) [1-417] | 5 | 5 | 5 | 1 | 5 | 5 | 4
10 | CCC(c1cncnc1C(C)C)N(C)C(=O)Cc1ccccc1 (racemic) [1-436] | 5 | 5 | 5 | 1 | 5 | 5 | 4
11 | CN(C(=O)Cc1ccc(F)cc1)C(c1ccsc1)c1cncnc1C(F)(F)F (racemic) [1-441] | 5 | 5 | 5 | 1 | 5 | 5 | 4
12 | CN(C(=O)Cc1ccc(Cl)cc1)C(c1ccsc1)c1cncnc1C(F)(F)F (racemic) [1-442] | 5 | 5 | 5 | 1 | 5 | 5 | 4
13 | CCCC(c1cncnc1C(C)C)N(C)C(=O)Cc1ccc(C)cc1 (racemic) [1-452] | 5 | 5 | 5 | 0 | 5 | 5 | 4
14 | CCOC(OCC)C(c1cncnc1C(C)C)N(C)C(=O)Cc1ccccc1 (racemic) [1-454] | 4 | 5 | 5 | 1 | 5 | 5 | 4
15 | CCOC(OCC)C(c1cncnc1C(C)C)N(C)C(=O)Cc1ccc(F)cc1 (racemic) [1-455] | 5 | 5 | 5 | 1 | 5 | 5 | 4
16 | CC(C)C(c1cncnc1C(F)(F)F)N(C)C(=O)N(C)c1ccc(C#N)cc1 (racemic) [1-459] | 5 | 5 | 5 | 1 | 5 | 5 | 4
17 | CC(C)C(c1cncnc1C(F)(F)F)N(C)C(=O)NCc1ccccc1 (racemic) [1-461] | 5 | 5 | 5 | 1 | 5 | 5 | 4
18 | CN(C(=O)Cc1ccc(F)cc1)C(c1cncnc1C1(C)CC1)C1(C)CC1 (racemic) [1-473] | 5 | 5 | 5 | 1 | 5 | 5 | 5
19 | COc1ccc(C(c2cncnc2C(F)(F)F)N(C)C(=O)Cc2ccccc2)cc1 (racemic) [1-484] | 5 | 5 | 5 | 1 | 5 | 5 | 5
20 | COc1ccccc1C(c1cncnc1C(F)(F)F)N(C)C(=O)Cc1ccc(F)cc1 (racemic) [1-489] | 5 | 5 | 5 | 1 | 5 | 5 | 4
21 | COc1ccccc1C(c1cncnc1C(F)(F)F)N(C)C(=O)Cc1ccc(Cl)cc1 (racemic) [1-490] | 5 | 5 | 5 | 0 | 5 | 5 | 4
22 | CCCc1ncncc1C(CCC)N(C)C(=O)Cc1ccccc1 (racemic) [1-492] | 5 | 5 | 5 | 0 | 5 | 5 | 5
23 | CCCc1ncncc1C(CCC)N(C)C(=O)Cc1ccc(F)cc1 (racemic) [1-493] | 5 | 5 | 5 | 1 | 5 | 5 | 4
24 | CCCc1ncncc1C(CCC)N(C)C(=O)Cc1ccc(Cl)cc1 (racemic) [1-494] | 5 | 5 | 5 | 1 | 5 | 5 | 5
